# In US20210300909A1, “IMMUNOMODULATORS, COMPOSITIONS AND METHODS THEREOF” (BETTA PHARMACEUTICALS CO., LTD, priority 2018, published 2021):
# Target: T1, PD-1/PD-L1 protein/protein interaction (Homo sapiens, UniProt Q9NZQ7)
# T1 construct: Recombinant human PD-L1 protein (19-238) with a His-tag at the C-terminus; purchased AcroBiosystems PD1-H5229 (PD-L1); PD1-H5257 (PD-1)
# Test: PD-1/PD-L1 homogenous time-resolved fluorescence (HTRF) binding assay
# Settings: not given
# Experimental: Resolved Fluorescence (HTRF) Binding Assay
# The assays were conducted in a standard black 384-well polystyrene plate with a final volume of 20 μL. Inhibitors were first serially diluted in DMSO and then added to the plate wells before the addition of other reaction components. The final concentration of DMSO in the assay was 1%. The assays were carried out at 25° C. in the PBS buffer (pH 7.4) with 0.05% Tween-20 and 0.1% BSA. […] Plates were centrifuged and proteins were preincubated with inhibitors for 40 min. The incubation was followed by the addition of 10 μL of HTRF detection buffer supplemented with Europium cryptate-labeled anti-human IgG (PerkinElmer-AD0212) specific for Fc and anti-His antibody conjugated to SureLight®-Allophycocyanin (APC, PerkinElmer-AD0059H). After centrifugation, the plate was incubated at 25° C. for 60 min. […] Final concentrations in the assay were […], 10 nM PD-L1, nM europium anti-human IgG and 20 nM anti-His-Allophycocyanin. IC50 determination was performed by fitting the curve of percent control activity versus the log of the inhibitor concentration using the GraphPad Prism 5.0 software.
# T1 sequence (Q9NZQ7 19-238): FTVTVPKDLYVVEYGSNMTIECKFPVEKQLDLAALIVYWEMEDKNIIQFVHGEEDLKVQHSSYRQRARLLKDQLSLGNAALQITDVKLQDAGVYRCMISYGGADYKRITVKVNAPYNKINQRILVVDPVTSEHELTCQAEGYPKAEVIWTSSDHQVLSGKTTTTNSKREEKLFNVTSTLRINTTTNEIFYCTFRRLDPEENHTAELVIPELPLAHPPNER
row,IC50 [nM],SMILES
1,< 25,"COc1cc2oc(-c3cccc(-c4cccc(OCCCN5CCOCC5)c4C#N)c3C)nc2cc1CN1CCOCC1C(=O)O (centres unmarked) [Compound 18, 4-((2-(2′-cyano-2-methyl-3′-(3-morpholinopropoxy)-[1,1′-biphenyl]-3-yl)-6-methoxybenzo[d]oxazol-5-yl)methyl)morpholine-3-carboxylic acid]"
2,< 25,"COc1cc2oc(-c3cccc(-c4cccc(NC(=O)CCN5CCOCC5)c4C)c3C)nc2cc1CN1CCCCC1C(=O)O (centres unmarked) [Compound 8, 1-((2-(2,2′-dimethyl-3′-(3-morpholinopropanamido)-[1,1′-biphenyl]-3-yl)-6-methoxybenzo[d]oxazol-5-yl)methyl)piperidine-2-carboxylic acid]"
3,25 to 150,"Cc1c(-c2cccc(OCCCN3CCOCC3)c2)cccc1-c1nc2cc(CN3CCCCC3C(=O)O)c(OCc3ccccn3)cc2o1 (centres unmarked) [Compound 22, 1-((2-(2-methyl-3′-(3-morpholinopropoxy)-[1,1′-biphenyl]-3-yl)-6-(pyridin-2-ylmethoxy)benzo[d]oxazol-5-yl)methyl)piperidine-2-carboxylic acid]"
4,< 25,"COc1cc2oc(-c3cccc(-c4cccc(C/C=C/CN5CCOCC5)c4C)c3C)nc2cc1CN1CCCCC1C(=O)O (centres unmarked) [Compound 6, (E)-1-((2-(2,2′-dimethyl-3′-(4-morpholinobut-2-en-1-yl)-[1,1′-biphenyl]-3-yl)-6-methoxybenzo[d]oxazol-5-yl)methyl)piperidine-2-carboxylic acid]"
5,< 25,"COc1cc2c(cc1CN1CCOCC1C(=O)O)nc(-c1cccc(-c3cccc(OCCCN4CCOCC4)c3)c1C)n2C (centres unmarked) [Compound 14, 4-((6-methoxy-1-methyl-2-(2-methyl-3′-(3-morpholinopropoxy)-[1,1′-biphenyl]-3-yl)-1H-benzo[d]imidazol-5-yl)methyl)morpholine-3-carboxylic acid]"
6,< 25,"COc1cc2oc(-c3cccc(-c4cccc(OCCCN5CCOCC5)c4F)c3C)nc2cc1CN1CCCCC1C(=O)O (centres unmarked) [Compound 9, 1-((2-(2′-fluoro-2-methyl-3′-(3-morpholinopropoxy)-[1,1′-biphenyl]-3-yl)-6-methoxybenzo[d]oxazol-5-yl)methyl)piperidine-2-carboxylic acid]"
7,25 to 150,"COc1cc2oc(-c3cccc(-c4cccc(CC5CC5CN5CCOCC5)c4C)c3C)nc2cc1CN1CCCCC1C(=O)O (centres unmarked) [Compound 28, 1-((2-(2,2′-dimethyl-3′-((2-(morpholinomethyl)cyclopropyl)methyl)-[1,1′-biphenyl]-3-yl)-6-methoxybenzo[d]oxazol-5-yl)methyl)piperidine-2-carboxylic acid]"
8,< 25,"COc1cc2oc(-c3cccc(-c4cccc(CCCN5CCOCC5)c4)c3C)nc2cc1CN1CCCCC1C(=O)O (centres unmarked) [Compound 4, 1-((6-methoxy-2-(2-methyl-3′-(3-morpholinopropyl)-[1,1′-biphenyl]-3-yl)benzo[d]oxazol-5-yl)methyl)piperidine-2-carboxylic acid]"
9,25 to 150,"COc1cc2oc(-c3cccc(-c4cccc(CCCCN5CCOCC5)c4)c3C)nc2cc1CN1CCCCC1C(=O)O (centres unmarked) [Compound 10, 1-((6-methoxy-2-(2-methyl-3′-(4-morpholinobutyl)-[1,1′-biphenyl]-3-yl)benzo[d]oxazol-5-yl)methyl)piperidine-2-carboxylic acid]"
10,25 to 150,"COc1cc2oc(-c3cccc(-c4cccc(NC(=O)NCCNCCO)c4)c3C)nc2cc1CN1CCCCC1C(=O)O (centres unmarked) [Compound 5, 1-((2-(3′-(3-(2-((2-hydroxyethyl)amino)ethyl)ureido)-2-methyl-[1,1′-biphenyl]-3-yl)-6-methoxybenzo[d]oxazol-5-yl)methyl)piperidine-2-carboxylic acid]"
11,< 25,"CCCNC(=O)NCCN(C)CCCOc1cccc(-c2cccc(-c3nc4cc(CN5CCCCC5C(=O)O)c(OC)cc4o3)c2C)c1C (centres unmarked) [Compound 32, 1-((2-(2,2′-dimethyl-3′-(3-(methyl(2-(3-propylureido)ethyl)amino)propoxy)-[1,1′-biphenyl]-3-yl)-6-methoxybenzo[d]oxazol-5-yl)methyl)piperidine-2-carboxylic acid]"
12,< 25,"COc1cc2oc(-c3cccc(-c4cccc5c4CCN5C(=O)CCN4CCOCC4)c3C)nc2cc1CN1CCOCC1C(=O)O (centres unmarked) [Compound 38, 4-((6-methoxy-2-(2-methyl-3-(1-(3-morpholinopropanoyl)indolin-4-yl)phenyl)benzo[d]oxazol-5-yl)methyl)morpholine-3-carboxylic acid]"
13,25 to 150,"COc1cc2c(cc1CN1CCC(F)(F)CC1C(=O)O)nc(-c1cccc(-c3cccc(OCCCN4CCOCC4)c3)c1C)n2C (centres unmarked) [Compound 15, 4,4-difluoro-1-((6-methoxy-1-methyl-2-(2-methyl-3′-(3-morpholinopropoxy)-[1,1′-biphenyl]-3-yl)-1H-benzo[d]imidazol-5-yl)methyl)piperidine-2-carboxylic acid]"
14,1,"COc1cc2oc(-c3cccc(-c4cccc(OCCCN5CCOCC5)c4C)c3C)nc2cc1CN1CCCCC1C(=O)O (centres unmarked) [Compound 3, 1-((2-(2,2′-dimethyl-3′-(3-morpholinopropoxy)-[1,1′-biphenyl]-3-yl)-6-methoxybenzo[d]oxazol-5-yl)methyl)piperidine-2-carboxylic acid]"
15,< 25,"COc1cc2sc(-c3cccc(-c4cccc(OCCCN5CCOCC5)c4)c3C)nc2cc1CN1CCCC1C(=O)O (centres unmarked) [Compound 25, ((6-methoxy-2-(2-methyl-3′-(3-morpholinopropoxy)-[1,1′-biphenyl]-3-yl)benzo[d]thiazol-5-yl)methyl)proline]"
16,< 25,"COc1cc2oc(-c3cccc(-c4cccc(OCCCN5CCOCC5)c4)c3C)nc2cc1CN1CCCC1C(=O)O (centres unmarked) [Compound 20, ((6-methoxy-2-(2-methyl-3′-(3-morpholinopropoxy)-[1,1′-biphenyl]-3-yl)benzo[d]oxazol-5-yl)methyl)proline]"
17,< 25,"Cc1c(-c2ccccc2)cccc1-c1nc2cc(CN3CCCCC3C(=O)O)c(OC(C)C)cc2o1 (centres unmarked) [Compound 24, 1-((6-isopropoxy-2-(2-methyl-[1,1′-biphenyl]-3-yl)benzo[d]oxazol-5-yl)methyl)piperidine-2-carboxylic acid]"
18,< 25,"COc1cc2oc(-c3cccc(-c4cccc(/C=C/CCN5CCOCC5)c4C)c3C)nc2cc1CN1CCCCC1C(=O)O (centres unmarked) [Compound 7, (E)-1-((2-(2,2′-dimethyl-3′-(4-morpholinobut-1-en-1-yl)-[1,1′-biphenyl]-3-yl)-6-methoxybenzo[d]oxazol-5-yl)methyl)piperidine-2-carboxylic acid]"
19,< 25,"COc1cc2nc(-c3cccc(-c4cccc(OCCCN5CCOCC5)c4)c3C)sc2cc1CN1CCCC1C(=O)O (centres unmarked) [Compound 26, ((5-methoxy-2-(2-methyl-3′-(3-morpholinopropoxy)-[1,1′-biphenyl]-3-yl)benzo[d]thiazol-6-yl)methyl)proline]"
20,< 25,"COc1cc2oc(-c3cccc(-c4cccc(OCCCN5CCOCC5)c4)c3C)nc2cc1CNC(C)(CO)C(=O)O (centres unmarked) [Compound 21, 3-hydroxy-2-(((6-methoxy-2-(2-methyl-3′-(3-morpholinopropoxy)-[1,1′-biphenyl]-3-yl)benzo[d]oxazol-5-yl)methyl)amino)-2-methylpropanoic acid]"
21,< 25,"COc1cc2oc(-c3cccc(-c4cccc(OCCCN(C)CCCCO)c4C)c3C)nc2cc1CN1CCCCC1C(=O)O (centres unmarked) [Compound 29, 1-((2-(3′-(3-((4-hydroxybutyl)(methyl)amino)propoxy)-2,2′-dimethyl-[1,1′-biphenyl]-3-yl)-6-methoxybenzo[d]oxazol-5-yl)methyl)piperidine-2-carboxylic acid]"

# Same assay, conditions: HTRF, recombinant human PD-1 (Fc tag) / PD-L1 (His-tag), 25° C., PBS pH 7.4; class symbols; read-out: IC50
row,IC50 [nM],SMILES
1,25 to 150,"COc1cc2oc(-c3cccc(-c4cccc(OCCCN5CCOCC5)c4)c3C)nc2cc1CN(C)C [Compound 2, 1-(6-methoxy-2-(2-methyl-3′-(3-morpholinopropoxy)-[1,1′-biphenyl]-3-yl)benzo[d]oxazol-5-yl)-N,N-dimethylmethanamine]"
2,25 to 150,"COc1cc2oc(-c3cccc(-c4ccc(Cl)c(OCCCN5CCOCC5)c4)c3C)nc2cc1CN1CCCCC1C(=O)O (centres unmarked) [Compound 11, 1-((2-(4′-chloro-2-methyl-3′-(3-morpholinopropoxy)-[1,1′-biphenyl]-3-yl)-6-methoxybenzo[d]oxazol-5-yl)methyl)piperidine-2-carboxylic acid]"
3,25 to 150,"Cc1c(OCCCN2CCOCC2)cccc1-c1cccc(-c2nc3cc(CNCC(=O)O)c(N(C)C)cc3s2)c1C [Compound 36, ((2-(2,2′-dimethyl-3′-(3-morpholinopropoxy)-[1,1′-biphenyl]-3-yl)-6-(dimethylamino)benzo[d]thiazol-5-yl)methyl)glycine]"
4,< 25,"COc1cc2oc(-c3cccc(-c4cccc(OCCCN5CCOCC5)c4)c3C)nc2cc1CNCCO [Compound 1, 2-(((6-methoxy-2-(2-methyl-3′-(3-morpholinopropoxy)-[1,1′-biphenyl]-3-yl)benzo[d]oxazol-5-yl)methyl)amino)ethan-1-ol]"

# Same assay, conditions: HTRF, recombinant human PD-1 (Fc tag) / PD-L1 (His-tag), 25° C., PBS pH 7.4; numeric values; read-out: IC50
row,IC50 [nM],SMILES
1,0.61,"COc1cc2oc(-c3cccc(-c4ccccc4)c3C)nc2cc1CN1CCCCC1C(=O)O (centres unmarked) [Compound 23, 1-((6-methoxy-2-(2-methyl-[1,1′-biphenyl]-3-yl)benzo[d]oxazol-5-yl)methyl)piperidine-2-carboxylic acid]"
